Experiment [1] concerns the target Sodium-dependent serotonin transporter (Rattus norvegicus, UniProt P31652). In words: Inhibition of [3H]paroxetine binding to serotonin transporter (SERT) of rat cortical membrane.
Experiment [2] concerns the target Sodium-dependent dopamine transporter (Rattus norvegicus, UniProt P23977). In words: Inhibition of [3H]-GBR-12,935 binding to dopamine transporter (DAT) of rat striatal membranes. It counts as cell membranes, Membrane.
Experiment [3] concerns the target Norepinephrine transporter (Rattus norvegicus, UniProt Q9WTR4). In words: Inhibition of [3H]nisoxetine binding to norepinephrine transporter (NET) of rat cortical homogenates.

Sodium-dependent dopamine transporter, sequence (P23977 whole entry): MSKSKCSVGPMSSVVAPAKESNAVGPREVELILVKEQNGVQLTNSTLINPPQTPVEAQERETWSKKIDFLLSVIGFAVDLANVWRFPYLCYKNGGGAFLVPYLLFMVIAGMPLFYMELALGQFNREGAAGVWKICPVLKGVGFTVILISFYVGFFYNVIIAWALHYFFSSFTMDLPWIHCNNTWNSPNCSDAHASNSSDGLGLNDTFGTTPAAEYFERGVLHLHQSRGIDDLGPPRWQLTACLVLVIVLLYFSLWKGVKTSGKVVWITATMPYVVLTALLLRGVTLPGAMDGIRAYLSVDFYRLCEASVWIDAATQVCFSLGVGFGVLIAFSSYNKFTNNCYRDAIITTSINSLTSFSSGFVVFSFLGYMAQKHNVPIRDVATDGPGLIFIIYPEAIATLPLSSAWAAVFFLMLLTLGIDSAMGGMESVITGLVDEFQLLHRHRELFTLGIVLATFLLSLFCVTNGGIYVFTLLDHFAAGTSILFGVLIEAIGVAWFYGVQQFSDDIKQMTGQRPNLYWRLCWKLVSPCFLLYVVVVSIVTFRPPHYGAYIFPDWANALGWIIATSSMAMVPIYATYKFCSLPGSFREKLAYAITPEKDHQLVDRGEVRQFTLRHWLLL
Norepinephrine transporter, sequence (Q9WTR4 whole entry): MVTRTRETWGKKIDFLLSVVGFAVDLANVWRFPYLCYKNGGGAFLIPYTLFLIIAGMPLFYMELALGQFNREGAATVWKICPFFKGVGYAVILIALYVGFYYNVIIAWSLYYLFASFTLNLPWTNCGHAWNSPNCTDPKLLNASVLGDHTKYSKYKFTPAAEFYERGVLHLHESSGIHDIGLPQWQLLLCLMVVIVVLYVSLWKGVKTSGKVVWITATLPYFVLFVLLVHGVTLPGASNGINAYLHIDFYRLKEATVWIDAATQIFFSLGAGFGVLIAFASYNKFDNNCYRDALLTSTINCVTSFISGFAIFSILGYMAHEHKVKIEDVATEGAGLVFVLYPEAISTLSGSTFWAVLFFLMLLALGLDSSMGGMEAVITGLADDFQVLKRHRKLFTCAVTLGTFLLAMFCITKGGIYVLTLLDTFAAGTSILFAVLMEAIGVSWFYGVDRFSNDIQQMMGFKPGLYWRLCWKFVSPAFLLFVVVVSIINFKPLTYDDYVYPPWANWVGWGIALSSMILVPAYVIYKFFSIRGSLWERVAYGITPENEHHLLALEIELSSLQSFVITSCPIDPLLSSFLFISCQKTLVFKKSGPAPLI
Sodium-dependent serotonin transporter, sequence (P31652 whole entry): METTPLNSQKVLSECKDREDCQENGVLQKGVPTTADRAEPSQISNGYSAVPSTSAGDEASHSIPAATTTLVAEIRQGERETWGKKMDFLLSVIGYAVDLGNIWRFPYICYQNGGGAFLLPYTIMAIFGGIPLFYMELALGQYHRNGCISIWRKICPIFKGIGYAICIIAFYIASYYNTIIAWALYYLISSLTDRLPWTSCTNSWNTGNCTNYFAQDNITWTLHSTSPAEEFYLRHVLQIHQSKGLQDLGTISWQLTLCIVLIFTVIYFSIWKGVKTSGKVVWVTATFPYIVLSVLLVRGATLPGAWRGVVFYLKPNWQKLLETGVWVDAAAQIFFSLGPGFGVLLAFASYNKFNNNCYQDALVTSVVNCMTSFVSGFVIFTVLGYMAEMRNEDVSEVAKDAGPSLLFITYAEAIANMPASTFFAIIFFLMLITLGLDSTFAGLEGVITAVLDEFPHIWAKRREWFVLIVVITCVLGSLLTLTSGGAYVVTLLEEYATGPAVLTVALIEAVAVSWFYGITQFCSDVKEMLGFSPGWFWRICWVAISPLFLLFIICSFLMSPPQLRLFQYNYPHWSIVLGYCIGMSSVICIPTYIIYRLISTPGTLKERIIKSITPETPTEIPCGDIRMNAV

For `Cc1ccc(Sc2ccccc2CN(C)C)c(N)c1`, the Ki (commonly the dissociation constant of the complex between target and ligand, obtained from inhibition or displacement) in experiment [1] was 1.65 nM; in experiment [2], above 1000 nM; in experiment [3], 325 nM.

Regarding `CN(C)Cc1ccccc1Sc1ccc(Br)cc1N`, the Ki in experiment [1] stood at 2.23 nM; in experiment [2], 171 nM; in experiment [3], 107 nM.

For `COCc1cc(Br)ccc1Sc1ccccc1CN(C)C`, the Ki in experiment [1] is 2.75 nM; in experiment [2] it was above 1000 nM; in experiment [3], 326 nM.

As to `CN(C)C(=O)c1ccccc1Sc1ccc(F)cc1C=O`, the Ki in experiment [1] was 695 nM; in experiment [2] it was above 1000 nM; in experiment [3], above 1000 nM.

For `CN(CCF)Cc1ccccc1Sc1ccc(I)cc1N`, the Ki in experiment [1] is 19.3 nM; in experiment [2], above 1000 nM; in experiment [3], above 1000 nM.

With `CN(C)Cc1ccccc1Sc1ccc(F)cc1CO`, the values for the inhibition constant Ki in experiment [1], in experiment [2] and in experiment [3] were 7.96 nM, 339 nM and 28.4 nM, respectively.

Regarding `CNCc1ccccc1Sc1ccc(Br)cc1N`, the Ki in experiment [1] stood at 1.49 nM; in experiment [2] it was 171 nM; in experiment [3], 107 nM.

Take `CN(C)Cc1ccccc1Sc1ccc(I)cc1N`: the results for the Ki in experiment [2] and in experiment [3] were above 1000 nM and 683 nM, respectively.

Regarding `CN(C)Cc1ccccc1Sc1ccc(/C=C/I)cc1N`, the results for the Ki in experiment [1], in experiment [2] and in experiment [3] were 53.3 nM, above 1000 nM and 80.2 nM, respectively.

Consider `CN(C)Cc1ccccc1Sc1ccc(Br)cc1CO`, for which the results for the Ki in experiment [1], in experiment [2] and in experiment [3] were 1.92 nM, 950 nM and 5.8 nM, respectively.

Consider `CNCc1ccccc1Sc1ccc(I)cc1N`, for which the values for the Ki in experiment [1], in experiment [2] and in experiment [3] were 1.25 nM, 818 nM and 714 nM, respectively.

On to `COCc1cc(I)ccc1Sc1ccccc1CN(C)C`, for which the Ki amounted to 2.5 nM in experiment [1], 172 nM in experiment [2] and 212 nM in experiment [3].

For `CNCc1ccccc1Sc1ccc(I)cc1CO`, the inhibitory constant (Ki) in experiment [1] stood at 0.98 nM; in experiment [2], 760 nM; in experiment [3], 12.8 nM.

As to `CN(C)C(=O)c1ccccc1Sc1ccc(Br)cc1C=O`, the Ki in experiment [1], in experiment [2] and in experiment [3] was above 1000 nM in each case.

Values taken from ChEMBL document CHEMBL1135886, “Substituted diphenyl sulfides as selective serotonin transporter ligands: synthesis and in vitro evaluation” (J Med Chem, 2002).
